# According to ChEMBL document CHEMBL5465560, “Selectivity Literature for EUbOPEN Chemogenomic Library” (2024):
# Columns and labels:
# [1] = biological target: T1, Activin receptor type-1 (Homo sapiens) (UniProt Q04771); assay: (§1) Selectivity interaction (LanthaScreen Eu Kinase Binding Assay) EUB0001632a ACVR1; details: at 10 µM
# T1 sequence (whole entry): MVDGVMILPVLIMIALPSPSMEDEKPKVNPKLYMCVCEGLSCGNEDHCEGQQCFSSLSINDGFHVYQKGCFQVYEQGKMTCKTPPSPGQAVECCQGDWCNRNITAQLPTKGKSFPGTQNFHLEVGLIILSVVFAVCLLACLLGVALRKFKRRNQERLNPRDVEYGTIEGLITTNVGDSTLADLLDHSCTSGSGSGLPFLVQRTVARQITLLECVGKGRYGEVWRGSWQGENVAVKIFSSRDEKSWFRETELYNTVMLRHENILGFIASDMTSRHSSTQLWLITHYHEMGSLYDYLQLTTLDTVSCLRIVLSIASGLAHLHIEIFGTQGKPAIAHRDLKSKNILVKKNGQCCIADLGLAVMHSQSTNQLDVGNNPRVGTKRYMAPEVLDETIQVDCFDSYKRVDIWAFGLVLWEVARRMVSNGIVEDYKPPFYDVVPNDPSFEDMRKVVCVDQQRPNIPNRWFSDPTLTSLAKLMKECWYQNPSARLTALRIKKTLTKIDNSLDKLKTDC
# [2] = system: Activin receptor type-1 (Homo sapiens), Q04771 [R206H]; assay: as §1; details: at 10 µM
# Activin receptor type-1 (Homo sapiens), Q04771 [R206H], sequence (Q04771 whole entry R206H): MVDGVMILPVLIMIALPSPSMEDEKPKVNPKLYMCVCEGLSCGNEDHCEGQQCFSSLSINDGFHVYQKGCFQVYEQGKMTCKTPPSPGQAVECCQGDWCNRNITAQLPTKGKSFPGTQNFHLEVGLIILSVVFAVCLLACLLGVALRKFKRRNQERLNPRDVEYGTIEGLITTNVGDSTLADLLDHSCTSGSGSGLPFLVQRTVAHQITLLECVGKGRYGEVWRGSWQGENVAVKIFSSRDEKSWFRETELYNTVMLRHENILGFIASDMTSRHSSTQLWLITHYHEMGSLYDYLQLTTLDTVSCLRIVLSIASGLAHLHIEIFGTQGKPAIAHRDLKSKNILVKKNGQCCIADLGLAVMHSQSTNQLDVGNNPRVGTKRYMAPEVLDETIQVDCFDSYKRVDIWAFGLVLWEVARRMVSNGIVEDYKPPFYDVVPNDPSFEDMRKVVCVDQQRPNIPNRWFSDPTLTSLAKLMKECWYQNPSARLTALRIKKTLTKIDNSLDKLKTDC
# [3] = biological target: T2, Hormonally up-regulated neu tumor-associated kinase (Homo sapiens) (UniProt P57058); assay: Selectivity interaction (KinomeScan (DiscoverX)) EUB0000666a HUNK; details: at 10 µM
# T2 sequence (whole entry): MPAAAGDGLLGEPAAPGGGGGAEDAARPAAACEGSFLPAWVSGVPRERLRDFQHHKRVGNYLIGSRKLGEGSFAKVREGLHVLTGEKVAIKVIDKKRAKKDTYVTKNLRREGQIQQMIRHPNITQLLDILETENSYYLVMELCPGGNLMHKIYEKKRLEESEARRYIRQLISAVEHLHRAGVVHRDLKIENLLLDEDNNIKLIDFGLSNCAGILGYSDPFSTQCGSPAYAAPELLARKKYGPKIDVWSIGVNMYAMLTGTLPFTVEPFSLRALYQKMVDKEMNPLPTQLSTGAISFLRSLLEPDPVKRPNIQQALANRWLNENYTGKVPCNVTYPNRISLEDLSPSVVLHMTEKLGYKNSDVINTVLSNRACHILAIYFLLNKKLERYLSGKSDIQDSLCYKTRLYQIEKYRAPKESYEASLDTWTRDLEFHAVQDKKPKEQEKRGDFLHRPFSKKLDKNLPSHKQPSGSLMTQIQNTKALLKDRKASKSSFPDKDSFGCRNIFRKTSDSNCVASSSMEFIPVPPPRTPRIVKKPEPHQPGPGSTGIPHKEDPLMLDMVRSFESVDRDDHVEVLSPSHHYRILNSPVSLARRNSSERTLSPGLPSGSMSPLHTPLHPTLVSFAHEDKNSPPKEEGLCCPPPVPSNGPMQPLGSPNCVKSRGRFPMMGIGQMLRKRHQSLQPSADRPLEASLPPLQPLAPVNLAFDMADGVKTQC
# [4] = biological target: Insulin receptor-related protein (Homo sapiens) (UniProt P14616); assay: Selectivity interaction (Kinase panel (Invitrogen)) EUB0000639a INSRR; details: at 200 nM
# Insulin receptor-related protein (Homo sapiens), sequence (P14616 27-742 limits assumed): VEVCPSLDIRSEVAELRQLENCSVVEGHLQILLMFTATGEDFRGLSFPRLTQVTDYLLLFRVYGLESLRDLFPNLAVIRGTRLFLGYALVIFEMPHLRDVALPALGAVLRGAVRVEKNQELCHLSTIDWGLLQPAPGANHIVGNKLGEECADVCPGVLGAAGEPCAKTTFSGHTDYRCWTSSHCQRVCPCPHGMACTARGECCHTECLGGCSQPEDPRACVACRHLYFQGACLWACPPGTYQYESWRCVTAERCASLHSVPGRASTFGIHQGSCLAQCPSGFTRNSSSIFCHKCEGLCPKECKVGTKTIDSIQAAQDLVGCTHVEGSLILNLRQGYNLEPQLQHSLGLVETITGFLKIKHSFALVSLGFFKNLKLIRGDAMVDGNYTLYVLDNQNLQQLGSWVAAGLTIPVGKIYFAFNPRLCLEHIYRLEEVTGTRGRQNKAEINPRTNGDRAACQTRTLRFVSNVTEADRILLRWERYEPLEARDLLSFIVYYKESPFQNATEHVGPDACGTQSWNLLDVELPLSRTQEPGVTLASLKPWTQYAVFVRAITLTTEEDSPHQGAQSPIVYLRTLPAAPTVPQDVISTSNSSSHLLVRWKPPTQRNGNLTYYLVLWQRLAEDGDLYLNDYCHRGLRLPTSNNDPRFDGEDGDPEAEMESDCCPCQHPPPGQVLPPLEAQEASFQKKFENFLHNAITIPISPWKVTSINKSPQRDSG
# Insulin receptor-related protein (Homo sapiens), sequence (P14616 747-1297 limits assumed): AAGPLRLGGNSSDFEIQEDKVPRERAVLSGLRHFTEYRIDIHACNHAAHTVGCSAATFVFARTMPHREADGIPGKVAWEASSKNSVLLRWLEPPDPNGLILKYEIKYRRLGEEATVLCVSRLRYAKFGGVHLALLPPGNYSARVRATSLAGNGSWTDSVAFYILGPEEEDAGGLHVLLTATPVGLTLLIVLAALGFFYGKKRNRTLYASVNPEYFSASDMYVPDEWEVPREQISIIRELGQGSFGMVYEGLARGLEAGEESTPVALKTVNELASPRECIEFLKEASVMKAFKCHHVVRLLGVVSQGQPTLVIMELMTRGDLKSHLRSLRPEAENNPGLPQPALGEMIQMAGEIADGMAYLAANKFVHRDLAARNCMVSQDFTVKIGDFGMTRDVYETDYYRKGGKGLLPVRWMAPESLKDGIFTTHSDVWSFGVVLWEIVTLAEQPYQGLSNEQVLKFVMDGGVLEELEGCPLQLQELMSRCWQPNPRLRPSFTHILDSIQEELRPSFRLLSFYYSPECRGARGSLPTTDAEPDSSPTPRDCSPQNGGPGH
# [5] = biological target: Tyrosine-protein kinase Lyn (Homo sapiens, UniProt P07948); assay: Selectivity interaction (KinomeScan (DiscoverX)) EUB0000595a LYN; details: at 10 µM
# Tyrosine-protein kinase Lyn, sequence (P07948 2-512 limits assumed): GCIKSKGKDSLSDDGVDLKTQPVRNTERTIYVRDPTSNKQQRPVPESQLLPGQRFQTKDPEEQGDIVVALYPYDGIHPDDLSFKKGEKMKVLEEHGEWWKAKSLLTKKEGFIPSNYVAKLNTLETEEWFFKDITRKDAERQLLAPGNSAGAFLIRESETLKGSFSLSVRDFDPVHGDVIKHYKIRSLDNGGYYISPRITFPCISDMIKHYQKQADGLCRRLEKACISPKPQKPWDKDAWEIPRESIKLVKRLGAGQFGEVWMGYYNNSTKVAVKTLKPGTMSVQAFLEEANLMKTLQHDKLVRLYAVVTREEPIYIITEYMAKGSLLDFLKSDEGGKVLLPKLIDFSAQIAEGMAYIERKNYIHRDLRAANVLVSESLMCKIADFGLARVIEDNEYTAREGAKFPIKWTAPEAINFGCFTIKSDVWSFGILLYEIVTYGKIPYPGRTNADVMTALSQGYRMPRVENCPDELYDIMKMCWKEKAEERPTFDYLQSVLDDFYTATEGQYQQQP
# [6] = biological target: T3, Serine/threonine-protein kinase BRSK1 (Homo sapiens) (UniProt Q8TDC3); assay: Selectivity interaction (Kinase screening (Nanosyn)) EUB0000604a BRSK1
# T3 sequence (whole entry): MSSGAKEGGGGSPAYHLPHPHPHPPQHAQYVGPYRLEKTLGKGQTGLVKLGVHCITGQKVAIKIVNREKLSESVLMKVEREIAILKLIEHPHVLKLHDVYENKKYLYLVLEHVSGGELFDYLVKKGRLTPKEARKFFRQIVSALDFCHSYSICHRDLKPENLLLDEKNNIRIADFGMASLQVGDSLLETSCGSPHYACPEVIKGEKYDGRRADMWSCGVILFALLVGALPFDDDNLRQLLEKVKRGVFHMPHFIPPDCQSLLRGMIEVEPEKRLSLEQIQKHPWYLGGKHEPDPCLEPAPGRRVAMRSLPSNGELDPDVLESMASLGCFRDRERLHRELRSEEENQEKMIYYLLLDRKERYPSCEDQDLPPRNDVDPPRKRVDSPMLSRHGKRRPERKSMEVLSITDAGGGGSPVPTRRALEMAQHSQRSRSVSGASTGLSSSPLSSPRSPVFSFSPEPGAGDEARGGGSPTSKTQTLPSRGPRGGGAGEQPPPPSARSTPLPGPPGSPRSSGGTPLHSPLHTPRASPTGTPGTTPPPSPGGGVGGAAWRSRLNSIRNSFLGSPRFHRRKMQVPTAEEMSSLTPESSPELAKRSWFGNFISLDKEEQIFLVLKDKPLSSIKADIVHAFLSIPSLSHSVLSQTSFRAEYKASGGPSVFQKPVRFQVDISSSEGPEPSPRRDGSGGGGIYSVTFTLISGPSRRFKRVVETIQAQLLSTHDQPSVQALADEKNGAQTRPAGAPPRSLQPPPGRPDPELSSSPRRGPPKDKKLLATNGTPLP
smiles,measurement,setting,value
Cn1cc(-n2cnc3c(NCc4nc5cc(Cl)c(Cl)cc5[nH]4)nc(N4CCOCC4)nc32)cn1,% of inhibition,[1],-2.09%
same,% of inhibition,[2],-125%
O=C(NOC[C@H](O)CO)c1ccc(F)c(F)c1Nc1ccc(I)cc1F,% of control,[3],100%
CC[C@@H]1[C@H](F)C(=O)N[C@@H]1COc1nccc2cc(C(N)=O)c(OC)cc12 [ZIMLOVISERTIB],% of inhibition,[4],2.97%
COCC(=O)NC/C=C/c1ccc2ncnc(Nc3ccc(Oc4ccc(C)nc4)c(C)c3)c2c1 [CP-724714],% of control,[5],92%
Cc1cnc(Nc2ccc(F)cc2Cl)nc1-c1c[nH]c(C(=O)N[C@H](CO)c2cccc(Cl)c2)c1,% of inhibition,[6],0%
